Results as given in US5336672A, “Increasing egg production in poultry” (Board of Supervisors of Louisiana State University and …, priority 1992, dated 1994).
Read-outs that look alike come from different tables or passages of the source.

How the values were obtained:
turkey poults = conditions: Steele et al. 1979; Rosebrough et al. 1981; may depend on Cr (III) in an organic form; cited from earlier work
laying hen = conditions: Jensen et al. 1978; cited from earlier work
rabbits = conditions: cited from earlier work
adult men = conditions: Cr supplementation; cited from earlier work
turkey breast tissue = conditions: supplemental Cr; Anderson et al. 1989; cited from earlier work
laying hens [1] = conditions: dietary; Jensen et al. 1980; cited from earlier work
rats = conditions: 200 mg/kg picolinic acid in diet; cited from earlier work
swine = conditions: Hill et al. 1986; cited from earlier work
laying hens [2] = test: Percentage of egg crude protein (Kjeldahl N method), Example 1; type: in vivo, Hyline 36 commercial-type laying hens; conditions: for Egg Protein: egg of Day 24, SEM .2, chromium quadratic effect P < .02
From the text: (§1) Hyline 36 commercial-type laying hens were taken from the Louisiana State University Agricultural Center Poultry Unit. The hens were 32-36 weeks of age during the 28 days of the trial. A randomized complete block design was used, and the hens were blocked on location in the barn. Hens were penned individually in cages (0.30×0.41 m) in an open front building. Each of the six treatments described below was replicated ten times, with one hen per replicate. The hens were fed a corn-soybean meal laying hen basal diet for one week. The composition of the diet is set forth in Table 1, and was formulated to meet or exceed the requirements for all nutrients as stated in "Nutrient Requirements of Poultry," National Research Council (1984). The hens were then randomly allotted to a treatment, and were fed the experimental diets during a 28-day trial. The following treatments were used: (1) Corn-soybean meal basal (B), (2) B+50 ppb Cr, (3) B+100 ppb Cr, (4) B+200 ppb Cr, (5) B+400 ppb Cr, and (6) B+800 ppb Cr. Cromium was administered as chromium picolinate. Treatment diets and water were provided on an ad libitum basis.
(§2) Egg production was recorded daily, and eggs were collected on Days 2, 9, 16, and 23 for determination of specific gravity [weight in air/(weight in air-weight in water)] and Haugh units. (Haugh unit=100 Log10 (Albumen height (in mm)+(7.57-(1.7) (Egg mass in grams)^037))). Eggs were collected on Days 0, 7, 14, 21, and 28 for CH analysis. To determine yolk CH, eggs were hard-cooked by immersion in boiling water for 5 min. Yolks were removed and weighed. The entire yolk was blended with a volume of isopropyl alcohol proportional to the yolk weight (10 ml/g of yolk). The cholesterol content of this extract (mg per g wet weight) was determined by an automated procedure based on the Lieberman-Burchard method. One egg was collected on Day 22 for determination of percentage of egg fat using the acid hydrolysis method, and one egg was collected on Day 24 for determination of percentage of egg crude protein by the Kjeldahl N method.
(§3) Data were analyzed by analysis of variance. Linear, quadratic, and cubic contrasts were used to evaluate the treatment effects. Egg production, specific gravity, Haugh units, and CH were measured over time and analyzed by split-plot analyses using hen(trt*rep) as the error term in the model.

laying hens [3] = test: Egg yolk cholesterol (Lieberman-Burchard method), Example 1; type: in vivo, Hyline 36 commercial-type laying hens; conditions: for Egg CH (cholesterol): mean of eggs of Days 0, 7, 14, 21, 28, SEM .2
From the text: as §1, §2, §3

laying hens [4] = test: Egg production, Example 1 (28-day feeding trial, hens 32-36 weeks of age); type: in vivo, Hyline 36 commercial-type laying hens; conditions: for Egg Production: 28 days, mean of 10 replicates, SEM 2.7, chromium cubic effect P < .03
From the text: as §1, §2, §3

laying hens [5] = test: Egg production, Example 3 (eight-week trial, hens 48-56 weeks of age); type: in vivo, Hyline 36 commercial-type laying hens; conditions: for Egg Production: eight weeks, SEM 4.3
From the text: as §1, §2, §3
(§4) The procedures described in Example 1 were followed, except as noted. The trial lasted eight weeks, and the hens were 28-36 weeks of age during the eight weeks of the trial. The treatments used were (1) Basal (B), (2) B+100 ppb Cr, (3) B+200 ppb Cr, (4) B+300 ppb Cr, and (5) B+400 ppb Cr. Only egg production is reported.
The procedures of Example 2 were followed, except that the hens were 48-56 weeks of age during the eight weeks of the trial.

laying hens [6] = test: Specific gravity of eggs, Example 1; type: in vivo, Hyline 36 commercial-type laying hens; conditions: for Specific gravity: mean of eggs of Days 2, 9, 16, 23, SEM .001
From the text: as §1, §2, §3

laying hens [7] = test: Percentage of egg fat (acid hydrolysis method), Example 1; type: in vivo, Hyline 36 commercial-type laying hens; conditions: for Egg fat: egg of Day 22, SEM .2, chromium quadratic effect P < .10; for Effect on percentage of egg fat: Cr quadratic, P<0.1
From the text: as §1, §2, §3

laying hens [8] = test: Egg production, Example 2 (eight-week trial, hens 28-36 weeks of age); type: in vivo, Hyline 36 commercial-type laying hens; conditions: for Egg Production: eight weeks, SEM 2.7
From the text: as §1, §2, §3, §4

laying hens [9] = test: Haugh units of eggs, Example 1; type: in vivo, Hyline 36 commercial-type laying hens; conditions: for Haugh units: mean of eggs of Days 2, 9, 16, 23, SEM 1.8
From the text: as §1, §2, §3

[10] = hens receiving 100 and 200 ppb Cr
[11] = overall, 100-400 ppb Cr, P>0.10

Compound: [Cr] [Cr, chromium]
- Growth rate of turkey poults (turkey poults): improved
- Biological activity in the laying hen (laying hen): biologically active
- Cholesterol (CH) accumulation (rabbits): decreased
- Removal rate of CH already deposited in the aorta (rabbits): increased
- HDL cholesterol (adult men): increases
- Serum triglycerides (adult men): decreases
- Turkey breast tissue (turkey breast tissue): small increase

Compound: O.O.O.O.O.O.[Cl][Cr]([Cl])[Cl] [CrCl3.6H2 O]
- Effect on egg production (laying hens [1]): no positive effect

Compound: O=C(O)c1ccccn1 [picolinic acid, pyridine-2-carboxylic acid]
- Growth rates in rats (rats): greater growth rates
- Growth rates (swine): faster growth rates
- Zinc absorption (swine): did not aid zinc absorption

Compound: chromium picolinate
- Egg Protein (laying hens [2]; B + 50 ppb Cr in diet): 12.2%
- Egg Protein (laying hens [2]; B + 100 ppb Cr in diet): 12.2%
- Egg Protein (laying hens [2]; B + 200 ppb Cr in diet): 12.2%
- Egg Protein (laying hens [2]; B + 400 ppb Cr in diet): 12.6%
- Egg Protein (laying hens [2]; B + 800 ppb Cr in diet): 12.3%
- Effect on percentage of egg crude protein (laying hens [2]; CrPic supplementation to the diet, Cr quadratic, P<0.02): reduced
- Egg CH (cholesterol) (laying hens [3]; B + 50 ppb Cr in diet): 12.1 mg/g yolk
- Egg CH (cholesterol) (laying hens [3]; B + 100 ppb Cr in diet): 11.7 mg/g yolk
- Egg CH (cholesterol) (laying hens [3]; B + 200 ppb Cr in diet): 11.9 mg/g yolk
- Egg CH (cholesterol) (laying hens [3]; B + 400 ppb Cr in diet): 12.1 mg/g yolk
- Egg CH (cholesterol) (laying hens [3]; B + 800 ppb Cr in diet): 11.9 mg/g yolk
- Effect on egg CH (laying hens [3]; CrPic supplementation overall, P>0.1): not affected
- Effect on egg CH by Day 28 (laying hens [3]; by Day 28 of the trial, Cr quadratic, P<0.05): reduced
- Effect on egg CH (laying hens [3]; [10]): tended to be lower
- Egg Production (laying hens [4]; B + 50 ppb Cr in diet): 79.3%
- Egg Production (laying hens [4]; B + 100 ppb Cr in diet): 81.1%
- Egg Production (laying hens [4]; B + 200 ppb Cr in diet): 83.2%
- Egg Production (laying hens [4]; B + 400 ppb Cr in diet): 76.1%
- Egg Production (laying hens [4]; B + 800 ppb Cr in diet): 77.7%
- Effect on egg production (laying hens [4]; at 400 and 800 ppb Cr, Cr cubic, P<0.03): decreased
- Optimum dosage of CrPic for egg production (laying hens [4]; in the diet, from the experiments of Examples 1-3): 100-200 ppb Cr
- Effect on egg production (laying hens [4]; supplementing the diet with CrPic, summary statement): incrementally increased in some circumstances
- Effect on egg production (laying hens [4]; through 200 ppb Cr, Cr cubic, P<0.03): increased
- Egg Production (laying hens [5]; B + 100 ppb Cr in diet): 83.0%
- Egg Production (laying hens [5]; B + 200 ppb Cr in diet): 82.1%
- Egg Production (laying hens [5]; B + 300 ppb Cr in diet): 74.8%
- Egg Production (laying hens [5]; B + 400 ppb Cr in diet): 77.1%
- Effect on egg production (laying hens [5]; at 100 ppb Cr): numerical increase in egg production
- Effect on egg production (laying hens [5]; [11]): not observed to affect egg production
- Specific gravity (laying hens [6]; B + 50 ppb Cr in diet): 1.085
- Specific gravity (laying hens [6]; B + 100 ppb Cr in diet): 1.084
- Specific gravity (laying hens [6]; B + 200 ppb Cr in diet): 1.084
- Specific gravity (laying hens [6]; B + 400 ppb Cr in diet): 1.084
- Specific gravity (laying hens [6]; B + 800 ppb Cr in diet): 1.085
- Effect on specific gravity (laying hens [6]; P>0.1): not affected
- Egg fat (laying hens [7]; B + 50 ppb Cr in diet): 10.2%
- Egg fat (laying hens [7]; B + 100 ppb Cr in diet): 10.6%
- Egg fat (laying hens [7]; B + 200 ppb Cr in diet): 10.8%
- Egg fat (laying hens [7]; B + 400 ppb Cr in diet): 10.0%
- Egg fat (laying hens [7]; B + 800 ppb Cr in diet): 9.9%
- Effect on percentage of egg fat (laying hens [7]; hens receiving 50, 400, and 800 ppb Cr): lower
- Effect on percentage of egg fat (laying hens [7]; [10]): higher
- Egg Production (laying hens [8]; B + 100 ppb Cr in diet): 85.2%
- Egg Production (laying hens [8]; B + 200 ppb Cr in diet): 82.3%
- Egg Production (laying hens [8]; B + 300 ppb Cr in diet): 84.5%
- Egg Production (laying hens [8]; B + 400 ppb Cr in diet): 81.6%
- Effect on egg production (laying hens [8]; at 100 ppb Cr): numerical increase in egg production
- Effect on egg production (laying hens [8]; [11]): not observed to affect egg production
- Haugh units (laying hens [9]; B + 50 ppb Cr in diet): 82.6
- Haugh units (laying hens [9]; B + 100 ppb Cr in diet): 84.6
- Haugh units (laying hens [9]; B + 200 ppb Cr in diet): 82.0
- Haugh units (laying hens [9]; B + 400 ppb Cr in diet): 85.0
- Haugh units (laying hens [9]; B + 800 ppb Cr in diet): 79.7
- Effect on Haugh units (laying hens [9]; P>0.1): not affected
